According to patent publication US20240165281A1, “DUAL MODE RADIOTRACER AND THERAPEUTICS” (Technische Universität München, priority 2021, published 2024):

Tests used:
[1] = Octanol-water partition coefficient (log D7.4); type: physicochemical; details: PBS pH 7.4 / n-octanol, 177Lu-labelled
Method: Octanol-Water Partition Coefficient (log D7.4)
Approximately 1 MBq of the labelled tracer was dissolved in 1 mL of a 1:1 mixture (v/v) of PBS (pH 7.4) and n-octanol in a reaction vial (1.5 mL). After vigorous mixing of the suspension for 3 minutes at room temperature, the vial was centrifuged at 15000 g for 3 minutes (Biofuge 15, Heraus Sepatech, Osterode, Germany) and 100 μL aliquots of both layers were measured in a gamma counter. The experiment was repeated at least six times.

PSMA = molecular target: T1, PSMA (Homo sapiens, UniProt Q04609); test: PSMA affinity (IC50), competition with [125I]I-BA-KuE on LNCaP cells; type: binding; details: natLu complex, on ice 60 min, read-out: IC50
T1 construct: PSMA-positive LNCAP cells (300265; Cell Lines Service, Eppelheim, Germany); host or cells: LNCaP cells
Method: A mixture of trypsin and EDTA (0.05%, 0.02%) in PBS (Biochrom) was used in order to harvest cells. Cells were counted with a Neubauer hemocytometer (Paul Marienfeld, Lauda-Königshofen, Germany).
Affinity Determinations (IC50)
In the case of metal-complexed ligands, the crude reaction mixture was diluted analogously, without further purification. Cells were harvested 24±2 hours prior to the experiment and seeded in 24-well plates (1.5×10^5 cells in 1 mL/well). […] The media of both steps were combined in one fraction and represent the amount of free radioligand. Afterwards, the cells were lysed with 250 μL of 1 M aqueous NaOH for at least 10 min. After a washing step (250 μL of 1 M NaOH), both fractions, representing the amount of bound ligand, were united. Quantification of all collected fractions was accomplished in a γ-counter. PSMA-affinity determinations were carried out at least three times per ligand.

LNCaP cells = test: Internalization studies in LNCaP cells; type: cell-based; details: 37° C., 60 min, normalized to ([125I]I-BA)KuE
Method: PSMA-positive LNCAP cells (300265; Cell Lines Service, Eppelheim, Germany) were cultivated in Dulbecco modified Eagle medium/Nutrition Mixture F-12 with Glutamax (1:1) (DMEM-F12, Biochrom, Berlin, Germany) supplemented with fetal bovine serum (10%, FBS Zellkultur, Berlin, Germany) and kept at 37° C. in a humidified CO2 atmosphere (5%). A mixture of trypsin and EDTA (0.05%, 0.02%) in PBS (Biochrom) was used in order to harvest cells. Cells were counted with a Neubauer hemocytometer (Paul Marienfeld, Lauda-Königshofen, Germany).
For internalization studies, LNCaP cells were harvested 24±2 hours before the experiment and seeded in poly-L-lysine coated 24-well plates (1.25×10^5 cells in 1 mL/well, Greiner Bio-One, Kremsmünster, Austria). After removal of the culture medium, the cells were washed once with 500 μL DMEM-F12 (5% BSA) and left to equilibrate for at least 15 min at 37° C. in […] DMEM-F12 (5% BSA). Each well was treated with either 25 μL of either DMEM-F12 (5% BSA, control) or 25 μL of a 100 μM PMPA (2-(Phosphonomethyl)-pentandioic acid, Tocris Bioscience, Bristol, UK) solution in PBS, for blockade. Next, 25 μL of the radioactive-labelled PSMA inhibitor (10.0 nM in DMEM-F12 (5% BSA)) was added and the cells were incubated at 37° C. for 60 min. The experiment was terminated by placing the 24-well plate on ice for 3 min and consecutive removal of the medium. Each well was carefully washed with 250 μL of ice-cold HBSS. Both fractions from the first steps, representing the amount of free radioligand, were combined. Removal of surface bound activity was accomplished by incubation of the cells with 250 μL of ice-cold PMPA (10 μM in PBS) solution for 5 min and rinsed again with another 250 μL of ice-cold PBS. The internalized activity was determined by incubation of the cells in 250 μL […] aqueous NaOH for at least 10 min. The obtained fractions were combined with those of the subsequent wash step with 250 μL 1 M aqueous NaOH. Each experiment (control and blockade) was performed in triplicate. Free, surface bound and internalized activity was quantified in a y-counter. All internalization studies were accompanied by external reference studies, using ([^125I]I-BA)KuE (c=0.2 nM), which were performed analogously. Data were corrected for non-specific binding and normalized to the specific-internalization observed for the radioiodinated reference compound.

[2] = molecular target: T2, Human Serum Albumin (HSA) (Homo sapiens, UniProt P02768); test: Human serum albumin (HSA) binding by high performance affinity chromatography (HPAC); type: in vitro ADME; details: Chiralpak HSA column
T2 construct: purchased Daicel H13H-2433
Method: Determination of Human Serum Albumin (HSA) Binding by High Performance Affinity Chromatography (HPAC)
HSA binding of the PSMA-addressing ligands was determined according to a previously published procedure via HPLC (Valko, K.; Nunhuck, S.; Bevan, C.; Abraham, M. H.; Reynolds, D. P. Journal of pharmaceutical sciences 2003, 92, 2236-2248). A Chiralpak HSA column (50×3 mm, 5 μm, H13H-2433, Daicel, Tokyo, Japan) was used at a constant flow rate of 0.5 mL/min at rt. Mobile phase A was a freshly prepared 50 mM aqueous solution of NH4OAc (pH 6.9) and mobile phase B was isopropanol (HPLC grade, VWR). The applied gradient for all experiments was 100% A (0 to 3 min), followed by 80% A (3 to 40 min). Prior to the experiment, the column was calibrated using nine reference substances with a HSA binding, known from literature, in the range of 13 to 99% (Valko, K.; Nunhuck, S.; Bevan, C.; Abraham, M. H.; Reynolds, D. P. Journal of pharmaceutical sciences 2003, 92, 2236-2248; Yamazaki, K.; Kanaoka, M. Journal of Pharmaceutical sciences 2004, 93, 1480-1494). All substances, including the examined PSMA ligands, were dissolved in a 1:1 mixture (v/v) of isopropanol and a 50 mM aqueous solution of NH4OAc (pH6.9) with a final concentration of 0.5 mg/mL. Non-linear regression was established with the OriginPro 2016G software (Northampton, United States) (FIG. 8).

[3] = Apparent molecular weight (MWapp)
[4] = tested on: LNCaP tumor-bearing male CB-17 SCID mice; test: Biodistribution studies 24 h p.i.; details: Table 1
Method: Approximately 3-7 MBq (0.1-0.2 nmol) of the radioactive-labelled PSMA inhibitors were injected into the tail vein of LNCaP tumor-bearing male CB-17 SCID mice and sacrificed after 24 h post injection. Selected organs were removed, weighted and measured in a γ-counter. Results are all decay corrected and given in % injected dose per gram of tissue (% iD/g). Tumor-to-organ ratios are calculated from animals' individual ratios and are given as mean±standard deviation.

[5] = Wängler et al. 2010; cited from earlier work

T1 sequence (Q04609 whole entry): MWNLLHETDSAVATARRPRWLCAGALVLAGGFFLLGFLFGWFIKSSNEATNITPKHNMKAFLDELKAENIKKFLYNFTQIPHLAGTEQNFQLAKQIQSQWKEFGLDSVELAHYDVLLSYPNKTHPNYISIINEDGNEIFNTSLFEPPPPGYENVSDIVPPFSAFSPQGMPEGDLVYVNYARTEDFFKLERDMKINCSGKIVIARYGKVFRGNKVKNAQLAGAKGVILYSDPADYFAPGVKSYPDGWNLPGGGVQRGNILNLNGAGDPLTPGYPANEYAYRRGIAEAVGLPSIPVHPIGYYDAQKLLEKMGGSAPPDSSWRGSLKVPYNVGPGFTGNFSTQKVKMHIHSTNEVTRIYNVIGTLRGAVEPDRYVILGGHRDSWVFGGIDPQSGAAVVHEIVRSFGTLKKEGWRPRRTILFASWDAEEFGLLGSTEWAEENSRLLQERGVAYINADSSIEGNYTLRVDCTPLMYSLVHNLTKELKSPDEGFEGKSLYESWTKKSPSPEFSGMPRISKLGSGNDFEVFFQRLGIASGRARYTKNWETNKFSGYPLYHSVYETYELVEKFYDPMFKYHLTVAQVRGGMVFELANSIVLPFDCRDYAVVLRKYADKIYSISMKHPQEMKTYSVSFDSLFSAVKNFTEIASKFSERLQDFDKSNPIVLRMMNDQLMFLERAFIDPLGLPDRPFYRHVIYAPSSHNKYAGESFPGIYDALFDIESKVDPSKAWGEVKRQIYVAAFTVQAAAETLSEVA
T2 sequence (P02768 25-609): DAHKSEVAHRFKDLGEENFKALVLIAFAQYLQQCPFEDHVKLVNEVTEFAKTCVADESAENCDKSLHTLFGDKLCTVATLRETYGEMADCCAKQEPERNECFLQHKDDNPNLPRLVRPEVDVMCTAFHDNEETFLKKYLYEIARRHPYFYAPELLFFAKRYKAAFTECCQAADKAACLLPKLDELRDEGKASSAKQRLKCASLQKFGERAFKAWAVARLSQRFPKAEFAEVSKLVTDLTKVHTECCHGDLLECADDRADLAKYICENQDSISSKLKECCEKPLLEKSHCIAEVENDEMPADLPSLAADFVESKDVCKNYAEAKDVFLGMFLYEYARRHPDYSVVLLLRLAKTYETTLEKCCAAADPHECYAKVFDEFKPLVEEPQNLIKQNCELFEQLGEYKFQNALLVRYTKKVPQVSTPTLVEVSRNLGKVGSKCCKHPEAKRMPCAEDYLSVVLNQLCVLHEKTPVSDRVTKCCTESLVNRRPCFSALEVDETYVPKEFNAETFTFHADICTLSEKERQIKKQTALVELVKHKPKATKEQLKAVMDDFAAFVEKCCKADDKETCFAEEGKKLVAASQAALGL

Molecule	logD7.4 [1]	IC50 (PSMA)	Internalization (LNCaP cells)	HSA (HPAC) [2]	MWapp [3]	Kidneys (24 h) [4]	Tumor (24 h) [4]	T/K-ratio ([4]; tumor/kidney)	log P(ow) [5]
CC(C)(C)[Si](F)(c1ccc(C(=O)NC[C@@H](NC(=O)CC[C@@H](C(=O)O)N2CCN(CC(=O)O)CCN(CC(=O)O)CCN(CC(=O)O)CC2)C(=O)N[C@H](CCCCNC(=O)CCC(=O)NCCC[C@@H](NC(=O)CC[C@H](NC(=O)N[C@@H](CCC(=O)O)C(=O)O)C(=O)O)C(=O)O)C(=O)O)cc1)C(C)(C)C [rhPSMA-7.3, reference compound]	−4.12 ± 0.11^	3.29 ± 1 nM	184 ± 12 % IBA-KuE	98.6%	30.4 kDa	1.4 ± 0.4 % iD/g	7.5 ± 0.9 % iD/g	5.17	–
SIFA-Asn(AcNH-β-Glc)-PEG-Tyr^3 -octreotate	–	–	–	–	–	–	–	–	0.96
SIFA-Asn(AcNH-β-Glc)-Tyr^3 -octreotate	–	–	–	–	–	–	–	–	1.23
